Like-named read-outs stand apart in the source and are kept apart here.
Assays:
human LOXL2 = human LOXL2 (Homo sapiens (Human), UniProt Q9Y4K0); assay: Human LOXL2 CCM assay (Amplex Red amine oxidase activity); format: biochemical
Protocol: Human LOXL2/CHO and human LOX/HEK stable cell lines were cultured under normal growth conditions in 15 cm tissue culture plates until cells were ˜80% confluent. Cells were then washed with PBS before the addition of 25-30 mL serum-free media (Phenol red-free DMEM/F12 mix w/glutamax containing pen/strep, 10-100 μM CuCl2±0.1% BSA). Cells were incubated at 37° C., 5% CO2 in serum-free media for 40-48 hours before the conditioned media was removed and centrifuged at 2000 rpm for 5 min at 4° C. to pellet cells/debris. The media was concentrated 10-20× using 10-30 MWCO centriprep columns according to the manufacturer's instructions (EMD Millipore, Billerica, Mass.) before aliquoting and storing at −80° C.
LOXL2 amine oxidase activity was evaluated by measuring Amplex Red fluorescence using 10-20× concentrated conditioned media (non BSA-containing) from CHO cells stably expressing human LOXL2. To assay for amine oxidase activity, 10 μL of the concentrated conditioned media was incubated with 2 μL of test compound in DMSO and 73 μL Assay Buffer (50 mM Borate Buffer, pH8) for 2 h at 37° C. After the 2 h incubation, 5 μL of 10 mM 1,5-Diaminopentane (DAP) diluted in Assay Buffer and 10 μL of Amplex Red Mix (8.5 μL Assay Buffer+0.5 μL of 10 mM Amplex Red+1 μL of 500 U/ml Horseradish Peroxidase) were added and the plate mixed and immediately placed on the FlexStation for fluorescence measurements. Fluorescence was read in kinetic mode every 2 min for 0.5-1 hour at excitation=544 and emission=590. The amine oxidase activity was calculated from the slope of the linear portion of the curve. Wells containing vehicle (DMSO) represented maximum activity and were set to 0% inhibition and wells containing 100 μM βAPN (3-aminopropionitrile) represented no activity and were set to 100% inhibition.

[1] = tested on: liver fibrosis in BALB/c.Mdr2-/- mice; assay: Mouse Mdr2 knockout model of biliary fibrosis; format: in vivo; details: a model of liver fibrosis
Protocol: Liver disease develops in the BALB/c.Mdr2−/− mouse model with bridging fibrosis/early cirrhosis between 8 and 12 weeks of age (Ikenaga et al. 2015 Am J Pathology, 185: 325-334). […] At the end of the study, mice were anesthetized with isoflurane (1.5% v/v) via precise vaporizer. After laparotomy, portal pressure was measured directly by inserting a high-fidelity pressure catheter into the portal vein and measuring pressure signals for 5 minutes. Serum was collected for analysis of liver (ALT, AST, ALP, and bilirubin) and kidney (creatinine) biochemistries. Part of the liver was fixed in 10% neutral buffered formalin for histopathological analysis of inflammation, necrosis and fibrosis by H&E staining and picrosirius red staining. Collagen area fraction was measured from picrosirius red stained images using an algorithm that separates the red stained collagen from non-specific staining through color subtraction and thresholding of the processed image. Sections were analyzed in random order using the same threshold value for each set. Data were deconvolved after analysis to identify group assignment. Collagen content was determined from a portion of the liver tissue using hydroxyproline analysis.

[2] = tested on: collagen induced arthritis (CIA); details: in vivo CIA mouse model; cited from earlier work
[3] = tested on: bleomycin-induced lung fibrosis; assay: Mouse oropharyngeal bleomycin model of lung fibrosis; format: in vivo
Protocol: Lung fibrosis was induced in C57Bl/6 male mice by administering bleomycin (0.1-4 U/kg) via oropharyngeal instillation. Mice were either pretreated with vehicle or test compound orally, intraperitoneally, intravenously or subcutaneously either prophylactically (1 day to 1 hour before bleomycin instillation) or therapeutically (7-14 days post bleomycin instillation). The route and frequency of dosing were based on previously determined pharmacokinetic properties for the LOXL2 inhibitor in mouse. After bleomycin instillation, animals were monitored daily for weight loss and clinical signs for 14-28 days prior to sacrifice. Animals were euthanized at study termination and weighed. […] For histological examination, lung slices were stained with Masson's trichrome or picrosirius red to measure fibrillar collagen as an indicator of fibrosis and an Ashcroft score of lung fibrosis and inflammatory damage determined. […] After the acid hydrolysis, 25-100 μL of the supernatant is dried down, resuspended in 25 μL water and the hydroxyproline content determined by the addition of 0.5 mL Chloramine T solution (140 mg Chloramine T in 6.5 ml ddH2O+1 ml n-propanol+2.5 mL 1M sodium acetate) and incubation at room temperature for 20 min. […]
Fibrotic status was assessed histologically on Day 21 using Ashcroft score as a primary measure of lung fibrosis. […]

[4] = Pharmacokinetic study of Compound 1 or 2 in rat; format: in vivo; details: male
Protocol: (§1) Blood samples were taken from each rat (approximately 0.3 mL total blood per time point) at pre-dose, 5 or 15 min and then at various time points up to 24 hours post-dose. Samples were collected on wet ice in tubes containing potassium EDTA (w/v in normal saline; BD Biosciences, Franklin Lakes, N.J. Plasma samples, prepared by centrifugation of whole blood, were stored frozen (−80° C.) prior to analysis. All other reagents were of analytical grade.
(§2) Analysis was performed on an LC-MS/MS systems comprised of a Sciex API-4000Qt tandem mass spectrometer (AB Sciex, Foster City, Calif.) interfaced to an HPLC system consisting of a single Agilent 1200 Series Quaternary system pump (Santa Clara, Calif.) and a LEAP PAL auto-injector (Greenville, S.C.). Analyses were performed using an Agilent Zorbax SB-C8 column (2.1×50 mm; 5 μm) for chromatographic separations at room temperature.

in vivo = details: dog
Protocol: as §1, with “dog” for “rat”, “1” for “0.3”
as §2

MDA-MB-435-GFP cells = assay: Mouse orthotopic breast cancer model; format: in vivo; details: oral 60 mg/kg/day, at 4 weeks, nude mice
Protocol: Tumor stocks were made by subcutaneously (s.c.) injecting MDA-MB-435-GFP cells at a concentration of 5×10^6 cells/100 μL into the flank of nude mice. When the s.c. tumors reach 50-100 mm^3, tumors were harvested and cut into 1 mm^3 fragments. Two tumor fragments were transplanted into the mammary fat pad of each mouse. […] Docetaxel was administered at 10 mg/kg intravenously once a week for 4 weeks as a positive control. Tumor size was calculated from a measurement of perpendicular minor dimension (W) and major dimension (L) using the formula (W2×L)×½ with W and L measured using a digital caliper. Mice were sacrificed after 4 weeks.

[5] = PO, 0.5% MC, 30 mg/kg, fasted, AUC0-t PO/AUC0-t IV
[6] = plasma, iv, 2 mg/kg, saline, fed

Sequence of human LOXL2 (Q9Y4K0 26-774): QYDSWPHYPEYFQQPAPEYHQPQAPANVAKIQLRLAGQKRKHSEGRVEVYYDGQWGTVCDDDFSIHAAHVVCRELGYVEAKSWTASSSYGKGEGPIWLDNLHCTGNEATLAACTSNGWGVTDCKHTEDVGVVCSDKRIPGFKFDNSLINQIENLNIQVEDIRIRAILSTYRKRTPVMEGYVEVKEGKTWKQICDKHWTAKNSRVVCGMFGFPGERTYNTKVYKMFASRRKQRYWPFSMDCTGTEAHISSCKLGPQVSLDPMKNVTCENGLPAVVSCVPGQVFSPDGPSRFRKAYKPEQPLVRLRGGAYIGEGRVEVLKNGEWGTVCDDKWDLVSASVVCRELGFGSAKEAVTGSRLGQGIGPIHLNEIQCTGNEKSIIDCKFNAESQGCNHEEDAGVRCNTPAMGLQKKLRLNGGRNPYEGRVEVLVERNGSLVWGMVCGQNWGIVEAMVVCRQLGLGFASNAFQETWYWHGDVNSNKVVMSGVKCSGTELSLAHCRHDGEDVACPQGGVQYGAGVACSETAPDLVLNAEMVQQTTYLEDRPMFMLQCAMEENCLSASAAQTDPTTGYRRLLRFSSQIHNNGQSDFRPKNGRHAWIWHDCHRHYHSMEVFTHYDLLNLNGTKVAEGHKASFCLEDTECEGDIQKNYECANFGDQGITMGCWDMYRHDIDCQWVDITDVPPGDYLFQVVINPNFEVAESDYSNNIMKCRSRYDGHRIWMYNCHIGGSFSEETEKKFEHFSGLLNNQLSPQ

With `NCc1cc(Oc2cccc(C(=O)N3C[C@@H](O)[C@H](F)C3)c2)nc(C(F)(F)F)c1` [Compound I, (R,R)-trans-(3-((4-(aminomethyl)-6-(trifluoromethyl)pyridin-2-yl)oxy)phenyl)(3-fluoro-4-hydroxypyrrolidin-1-yl)methanone] the “potency relative to the (S,S)-isomer” value (human LOXL2; in vitro assays) was “less than 2 fold” and the “fibrosis as area fraction of Picrosirius red (collagen) positive staining” value [1] was “significantly reduced fibrosis”.
In the case of `N#CCCN` [BAPN, β-aminopropionitrile], the “effect on collagen induced arthritis” value [2] is listed as “ameliorated collagen induced arthritis (CIA)”.
In the case of `NCc1cc(Oc2cccc(C(=O)N3C[C@@H](O)[C@H](F)C3)c2)nc(C(F)(F)F)c1` [Compound 1, (R,R)-trans-(3-((4-(aminomethyl)-6-(trifluoromethyl)pyridin-2-yl)oxy)phenyl)(3-fluoro-4-hydroxypyrrolidin-1-yl)methanone], the “Ashcroft score, mean value after treatment” value ([3]; prophylactic, oral 60 mg/kg/day from Day -1, Day 14, reduced from mean 3.1) is reported as 0.8, the “normalization of Ashcroft score” value ([3]; recovery study, oral 60 mg/kg starting Day 14 after bleomycin, lungs harvested Day 28) is reported as 73% and the IC50 (human LOXL2; CCM containing BSA, read-out: IC50, LOXL2 (CCM containing BSA)) is reported as 116 nM. For the same compound, the “AUC0-t hr/Dose” value ([4]; IV, saline, 2 mg/kg, fed) was 0.07, the “AUC0-t hr/Dose” value ([4]; PO, 0.5% MC, 30 mg/kg, fasted) was 0.05 and the “F(%)” value [4, 5] was 71%. The “AUC0-t hr/Dose” value ([4]; PO, capsule, 15 mg/kg, fasted) was 0.05, the Cmax ([4]; plasma, iv, 2 mg/kg, IV, saline, 2 mg/kg, fed, read-out: Cmax) was 630 ng/mL and the Tmax ([4]; plasma, iv, 2 mg/kg, IV, saline, 2 mg/kg, fed, read-out: Tmax) was 4.98 min. The AUC(0-t) [4, 6] was 140 ng·h/mL, the bioavailability [4, 6] was 100% and the bioavailability ([4]; plasma, oral, 15 mg/kg, capsule, fasted, AUC0-t PO/AUC0-t IV) was 69%. The Cmax ([4]; plasma, po, 15 mg/kg, PO, capsule, 15 mg/kg, fasted, read-out: Cmax) was 1200 ng/mL, the Tmax ([4]; plasma, po, 15 mg/kg, PO, capsule, 15 mg/kg, fasted, read-out: Tmax) was 36 min and the AUC(0-t) ([4]; plasma, po, 15 mg/kg, capsule, fasted) was 740 ng·h/mL. It also gave an AUC(0-t) ([4]; plasma, po, 30 mg/kg, 0.5% MC, fasted) of 1400 ng·h/mL, a Cmax ([4]; plasma, po, 30 mg/kg, PO, 0.5% MC, 30 mg/kg, fasted, read-out: Cmax) of 1700 ng/mL and a Tmax ([4]; plasma, po, 30 mg/kg, PO, 0.5% MC, 30 mg/kg, fasted, read-out: Tmax) of 15 min. For the same compound, the “emesis (clinical observations)” value (in vivo; po) was “Emesis was prevalent in all dose groups”, the “AUC0-t hr/Dose” value (in vivo; po, 100 mg/kg) was 0.85 and the bioavailability (in vivo; male, beagle, 100 mg/kg, F(%)) was 283%. It also gave a Tmax (in vivo; male, beagle, po, 100 mg/kg) of 78 min, an AUC(0-t) (in vivo; male, beagle, po, 100 mg/kg, AUC(0-t hr)) of 85000 ng·h/mL and a Cmax (in vivo; male, beagle, po, 100 mg/kg) of 27000 ng/mL. The “reduction in tumor volume” value (MDA-MB-435-GFP cells) was 35%.
For `NCc1cc(Oc2cccc(C(=O)N3C[C@H](O)[C@@H](F)C3)c2)nc(C(F)(F)F)c1` (single isomer, unassigned) [Compound Ent-1], the IC50 (human LOXL2; human LOXL2 CCM (non BSA-containing), 2 h preincubation at 37° C., read-out: IC50) was < 300 nM.
For `NCc1cc(Oc2cccc(C(=O)N3C[C@@H](O)[C@H](F)C3)c2)nc(C(F)(F)F)c1` [Compound 2, (R,R)-trans-(3-((4-(aminomethyl)-6-(trifluoromethyl)pyridin-2-yl)oxy)phenyl)(3-fluoro-4-hydroxypyrrolidin-1-yl)methanone], the “AUC0-t hr/Dose” value ([4]; PO, 0.5% MC, 30 mg/kg, fasted) was 0.07, the “AUC(0-t hr)” value ([4]; PO, 0.5% MC, 30 mg/kg, fasted) was 2000 ng·h/mL and the Cmax ([4]; PO, 0.5% MC, 30 mg/kg, fasted) was 2600 ng/mL. The Tmax ([4]; PO, 0.5% MC, 30 mg/kg, fasted) was 25.2 min, the “F(%)” value [4, 5] was 95% and the “emesis (clinical observations)” value (in vivo; po) was “Emesis was prevalent in all dose groups”. For the same compound, the “tolerability by dosing form (clinical observations)” value (in vivo; po) was “oral capsule and potentially the tablet were better tolerated”, the Cmax (in vivo; male, beagle, po, 300 mg/kg) was 143000 ng/mL and the Tmax (in vivo; male, beagle, po, 300 mg/kg, Tmax) was 18 min.

Reference: patent US11793797B2, “Uses of a lysyl oxidase-like 2 inhibitor” (PHARMAKEA, INC., priority 2016, dated 2023)
